Data as given in the NIST ThermoML archive (doi:10.1021/je060271a).
± gives the expanded uncertainty stated by the source.

Details: 283.14 K, Liquid, Vibrating tube method

CCCCCCC(=O)OCC(COC(=O)CCCCCC)(COC(=O)CCCCCC)COC(=O)CCCCCC [pentaerythritol tetraheptanoate]
Details	mass density [kg/m3]
16450 kPa	995.1 ± 1.2
16481 kPa	995 ± 1.2
16506 kPa	995.1 ± 1.2
16531 kPa	995.1 ± 1.2
16587 kPa	995.1 ± 1.2
16617 kPa	995.2 ± 1.2
16669 kPa	995.1 ± 1.2
16725 kPa	995.2 ± 1.2
16752 kPa	995.2 ± 1.2
16779 kPa	995.3 ± 1.2
16810 kPa	995.3 ± 1.2
16836 kPa	995.2 ± 1.2
16868 kPa	995.2 ± 1.2
16894 kPa	995.4 ± 1.2
16921 kPa	995.3 ± 1.2
16953 kPa	995.3 ± 1.2
16980 kPa	995.4 ± 1.2
17007 kPa	995.4 ± 1.2
17035 kPa	995.4 ± 1.2
17068 kPa	995.4 ± 1.2
17095 kPa	995.5 ± 1.2
17124 kPa	995.4 ± 1.2
17152 kPa	995.4 ± 1.2
17180 kPa	995.5 ± 1.2
17214 kPa	995.3 ± 1.2
17241 kPa	995.5 ± 1.2
17269 kPa	995.5 ± 1.2
17363 kPa	995.5 ± 1.2
17449 kPa	995.6 ± 1.2
17484 kPa	995.7 ± 1.2
17513 kPa	995.5 ± 1.2
17543 kPa	995.7 ± 1.2
17572 kPa	995.6 ± 1.2
17607 kPa	995.7 ± 1.2
17636 kPa	995.8 ± 1.2
17666 kPa	995.6 ± 1.2
17700 kPa	995.7 ± 1.2
17729 kPa	995.8 ± 1.2
17759 kPa	995.8 ± 1.2
17794 kPa	995.8 ± 1.2
17824 kPa	995.7 ± 1.2
17854 kPa	995.8 ± 1.2
17890 kPa	995.9 ± 1.2
17920 kPa	995.8 ± 1.2
17950 kPa	995.9 ± 1.2
17986 kPa	995.8 ± 1.2
18017 kPa	995.9 ± 1.2
18048 kPa	996 ± 1.2
18085 kPa	995.9 ± 1.2
18116 kPa	995.9 ± 1.2
18147 kPa	995.9 ± 1.2
18184 kPa	995.9 ± 1.2
18215 kPa	996 ± 1.2
18247 kPa	996 ± 1.2
18278 kPa	996 ± 1.2
18316 kPa	995.9 ± 1.2
18348 kPa	996 ± 1.2
18380 kPa	996.1 ± 1.2
18419 kPa	996.1 ± 1.2
18450 kPa	996.2 ± 1.2
18489 kPa	996.2 ± 1.2
18522 kPa	996.1 ± 1.2
18554 kPa	996.1 ± 1.2
18586 kPa	996.1 ± 1.2
18625 kPa	996.3 ± 1.2
18658 kPa	996.3 ± 1.2
18697 kPa	996.3 ± 1.2
18731 kPa	996.2 ± 1.2
18764 kPa	996.3 ± 1.2
18805 kPa	996.3 ± 1.2
18839 kPa	996.3 ± 1.2
18873 kPa	996.3 ± 1.2
18908 kPa	996.4 ± 1.2
18950 kPa	996.4 ± 1.2
18986 kPa	996.4 ± 1.2
19030 kPa	996.4 ± 1.2
19067 kPa	996.3 ± 1.2
19105 kPa	996.5 ± 1.2
19144 kPa	996.5 ± 1.2
19165 kPa	996.5 ± 1.2
19176 kPa	996.5 ± 1.2
19199 kPa	996.5 ± 1.2
19220 kPa	996.4 ± 1.2
19241 kPa	996.6 ± 1.2
19262 kPa	996.5 ± 1.2
19288 kPa	996.7 ± 1.2
19308 kPa	996.5 ± 1.2
19333 kPa	996.6 ± 1.2
19354 kPa	996.5 ± 1.2
19376 kPa	996.7 ± 1.2
19396 kPa	996.7 ± 1.2
19422 kPa	996.6 ± 1.2
19443 kPa	996.8 ± 1.2
19465 kPa	996.7 ± 1.2
19491 kPa	996.7 ± 1.2
19512 kPa	996.7 ± 1.2
19538 kPa	996.8 ± 1.2
19560 kPa	996.7 ± 1.2
19582 kPa	996.6 ± 1.2
19604 kPa	996.8 ± 1.2
19630 kPa	996.7 ± 1.2
19652 kPa	996.7 ± 1.2
19675 kPa	996.7 ± 1.2
19697 kPa	996.7 ± 1.2
19746 kPa	996.8 ± 1.2
19769 kPa	996.8 ± 1.2
19796 kPa	996.9 ± 1.2
19818 kPa	996.8 ± 1.2
19841 kPa	996.8 ± 1.2
19863 kPa	996.9 ± 1.2
19890 kPa	996.9 ± 1.2
19912 kPa	996.9 ± 1.2
